Measurements reported in patent US4594338A, “Thioether derivatives of tylosin” (priority 1984, dated 1986).
Converted amounts (≈) assume the structure as drawn.

Assays:
Type in all cases: cell-based
[1] = system: Staphylococcus aureus KB 199(EM^r); experiment: Minimum inhibitory concentration, Staphylococcus aureus KB 199(EM^r); details: Staphylococcus aureus KB 199, erythromycin-resistant (EM^r)
Source text: (§1) The compounds of formula (I) show antibacterial activity against both gram-positive and gram-negative bacteria. The following Tables illustrate minimum inhibitory concentrations (MIC's) for a representative sample of the compounds of the invention against gram-positive and gram-negative bacteria as well as bacteria resistant to antibiotics. In the Tables abbreviations with the symbol r attached designate resistant bacterial strains.

[2] = system: Proteus vulgaris IFO 3167; experiment: Minimum inhibitory concentration, Proteus vulgaris IFO 3167; details: IFO3167
Source text: as §1

[3] = system: Klebsiella pneumoniae ATCC 10031; experiment: Minimum inhibitory concentration, Klebsiella pneumoniae ATCC 10031; details: ATCC10031
Source text: as §1

[4] = system: Mycobacterium smegmatis ATCC 607; experiment: Minimum inhibitory concentration, Mycobacterium smegmatis ATCC 607; details: Mycolicibacterium smegmatis, ATCC607
Source text: as §1

[5] = system: Micrococcus luteus ATCC 9341; experiment: Minimum inhibitory concentration, Micrococcus luteus ATCC 9341; details: ATCC9341
Source text: as §1

[6] = system: Bacillus cereus IFO 3001; experiment: Minimum inhibitory concentration, Bacillus cereus IFO 3001; details: IFO3001
Source text: as §1

[7] = system: Bacillus subtilis PCI 219; experiment: Minimum inhibitory concentration, Bacillus subtilis PCI 219; details: PCI219
Source text: as §1

[8] = system: Pseudomonas aeruginosa P-3; experiment: Minimum inhibitory concentration, Pseudomonas aeruginosa P-3; details: P3
Source text: as §1

[9] = system: Klebsiella pneumoniae PCI 602; experiment: Minimum inhibitory concentration, Klebsiella pneumoniae PCI 602; details: PCI602
Source text: as §1

[10] = system: Salmonella typhirium KB 20; experiment: Minimum inhibitory concentration, Salmonella typhirium KB 20; details: KB20, read-out: minimum inhibitory concentration (MIC)
Source text: as §1

[11] = system: Escherichia coli NIHJ; experiment: Minimum inhibitory concentration, Escherichia coli NIHJ
Source text: as §1

[12] = system: Staphylococcus aureus ATCC 6538P; experiment: Minimum inhibitory concentration, Staphylococcus aureus ATCC 6538P; details: ATCC6538P
Source text: as §1

[13] = system: Staphylococcus aureus KB 219 (MC, TC, PC, CP^r); experiment: Minimum inhibitory concentration against resistant strain Staphylococcus aureus KB 219
Source text: as §1

[14] = system: Staphylococcus aureus KB 224 (MC, TC, KM, SM^r); experiment: Minimum inhibitory concentration against resistant strain Staphylococcus aureus KB 224
Source text: as §1

[15] = system: Staphylococcus aureus KB 191 (MC, TC^r); experiment: Minimum inhibitory concentration against resistant strain Staphylococcus aureus KB 191
Source text: as §1

[16] = system: Staphylococcus aureus KB 221 (MC, TC, CP, KM^r); experiment: Minimum inhibitory concentration against resistant strain Staphylococcus aureus KB 221
Source text: as §1

Row | Structure (SMILES) | MIC [1] [µg/mL] | MIC [2] [µg/mL] | MIC [3] [µg/mL] | MIC [4] [µg/mL] | MIC [5] [µg/mL] | MIC [6] [µg/mL] | MIC [7] [µg/mL] | MIC [8] [µg/mL] | MIC [9] [µg/mL] | MIC [10] [µg/mL] | MIC [11] [µg/mL] | MIC [12] [µg/mL] | MIC [13] [µg/mL] | MIC [14] [µg/mL] | MIC [15] [µg/mL] | MIC [16] [µg/mL]
1 | CCC1OC(=O)CC(O)C(C)C(OC2OC(C)C(O)C(N(C)C)C2O)C(CC=O)CC(C)C(=O)CC(Sc2ccc(N)cc2)C(C)=CC1COC1OC(C)C(O)C(OC)C1OC (stereo not drawn) [Compound P, 11-(p-Aminophenylthio)-10,11-dihydrodemycarosyltylosin] | > 100 | > 100 | 100 (≈ 111 µM) | > 100 | 0.2 (≈ 0.223 µM) | 0.78 (≈ 0.869 µM) | 3.12 (≈ 3.48 µM) | > 100 | > 100 | > 100 | > 100 | 3.12 (≈ 3.48 µM) | – | – | – | –
2 | CCC1OC(=O)CC(O)C(C)C(OC2OC(C)C(OC3CC(C)(O)C(O)C(C)O3)C(N(C)C)C2O)C(CC=O)CC(C)C(=O)CC(Sc2ccc(OC)cc2)C(C)=CC1COC1OC(C)C(O)C(OC)C1OC (stereo not drawn) [Compound W, 10,11-Dihydro-11-(p-methoxyphenylthio)tylosin] | 50 (≈ 47.3 µM) | 50 (≈ 47.3 µM) | 100 (≈ 94.7 µM) | > 100 | < 0.1 | 0.4 (≈ 0.379 µM) | 0.4 (≈ 0.379 µM) | > 100 | 100 (≈ 94.7 µM) | 100 (≈ 94.7 µM) | 100 (≈ 94.7 µM) | 3.12 (≈ 2.95 µM) | 100 (≈ 94.7 µM) | 50 (≈ 47.3 µM) | 50 (≈ 47.3 µM) | –
3 | CCC1OC(=O)CC(O)C(C)C(OC2OC(C)C(OC3CC(C)(O)C(O)C(C)O3)C(N(C)C)C2O)C(CC(Sc2ccccc2)Sc2ccccc2)CC(C)C(=O)C=CC(C)=CC1COC1OC(C)C(O)C(OC)C1OC (stereo not drawn) [Compound C, Tylosin Diphenyl Thioacetal] | > 50 | > 100 | > 100 | 50 (≈ 44.7 µM) | 0.2 (≈ 0.179 µM) | 0.78 (≈ 0.697 µM) | 0.78 (≈ 0.697 µM) | – | > 100 | > 100 | > 100 | 12.5 (≈ 11.2 µM) | – | – | – | –
4 | CCC1OC(=O)CC(O)C(C)C(OC2OC(C)C(OC3CC(C)(O)C(O)C(C)O3)C(N(C)C)C2O)C(CC=O)CC(C)C(=O)CC(Sc2ccc(Cl)cc2)C(C)=CC1COC1OC(C)C(O)C(OC)C1OC (stereo not drawn) [Compound T, 11-(p-Chlorophenylthio)-10,11-dihydrotylosin] | 25 (≈ 23.6 µM) | 50 (≈ 47.1 µM) | 100 (≈ 94.3 µM) | 50 (≈ 47.1 µM) | < 0.1 | 0.4 (≈ 0.377 µM) | 0.4 (≈ 0.377 µM) | > 100 | 100 (≈ 94.3 µM) | 100 (≈ 94.3 µM) | 100 (≈ 94.3 µM) | 3.12 (≈ 2.94 µM) | 50 (≈ 47.1 µM) | 25 (≈ 23.6 µM) | 25 (≈ 23.6 µM) | –
5 | CCC1OC(=O)CC(O)C(C)C(OC2OC(C)C(O)C(N(C)C)C2O)C(CC=O)CC(C)C(=O)CC(SCCO)C(C)=CC1COC1OC(C)C(O)C(OC)C1OC (stereo not drawn) [O, 10,11-Dihydro-11-(2-hydroxyethylthio)demycarosyltylosin] | > 100 | > 100 | > 100 | > 100 | 0.4 (≈ 0.471 µM) | 3.12 (≈ 3.67 µM) | 12.5 (≈ 14.7 µM) | > 100 | > 100 | > 100 | > 100 | 12.5 (≈ 14.7 µM) | – | – | – | –
6 | CCC1OC(=O)CC(O)C(C)C(OC2OC(C)C(O)C(N(C)C)C2O)C(CC=O)CC(C)C(=O)CC(Sc2ccccc2)C(C)=CC1COC1OC(C)C(O)C(OC)C1OC (stereo not drawn) [Compound Q, 10,11-Dihydro-11-(phenylthio)demycarosyltylosin] | > 100 | 50 (≈ 56.7 µM) | 100 (≈ 113 µM) | > 100 | < 0.1 | 0.2 (≈ 0.227 µM) | 0.78 (≈ 0.884 µM) | > 100 | 100 (≈ 113 µM) | 100 (≈ 113 µM) | 100 (≈ 113 µM) | 0.78 (≈ 0.884 µM) | – | – | – | –
7 | CCSC1CC(=O)C(C)CC(CC=O)C(OC2OC(C)C(OC3CC(C)(O)C(O)C(C)O3)C(N(C)C)C2O)C(C)C(O)CC(=O)OC(CC)C(COC2OC(C)C(O)C(OC)C2OC)C=C1C (stereo not drawn) [Compound R, 11-(Ethylthio)-10,11-dihydrotylosin] | > 100 | > 100 | 100 (≈ 102 µM) | 100 (≈ 102 µM) | < 0.1 | 0.78 (≈ 0.797 µM) | 0.78 (≈ 0.797 µM) | > 100 | 100 (≈ 102 µM) | > 100 | 100 (≈ 102 µM) | 1.56 (≈ 1.59 µM) | – | – | – | –
8 | CCC1OC(=O)CC(O)C(C)C(OC2OC(C)C(OC3CC(C)(O)C(O)C(C)O3)C(N(C)C)C2O)C(CC=O)CC(C)C(=O)CC(Sc2ccc(C)cc2)C(C)=CC1COC1OC(C)C(O)C(OC)C1OC (stereo not drawn) [Compound V, 10,11-Dihydro-11-(p-methylphenylthio)tylosin] | 25 (≈ 24 µM) | 50 (≈ 48.1 µM) | 100 (≈ 96.1 µM) | 50 (≈ 48.1 µM) | < 0.1 | 0.4 (≈ 0.384 µM) | 0.4 (≈ 0.384 µM) | > 100 | 100 (≈ 96.1 µM) | 100 (≈ 96.1 µM) | 100 (≈ 96.1 µM) | 3.12 (≈ 3 µM) | – | – | – | –
9 | CCC1OC(=O)CC(O)C(C)C(OC2OC(C)C(OC3CC(C)(O)C(O)C(C)O3)C(N(C)C)C2O)C(CC=O)CC(C)C(=O)CC(Sc2ccccc2)C(C)=CC1COC1OC(C)C(O)C(OC)C1OC (stereo not drawn) [Compound S, 10,11-Dihydro-11-(phenylthio)tylosin] | 50 (≈ 48.7 µM) | 100 (≈ 97.4 µM) | 100 (≈ 97.4 µM) | 50 (≈ 48.7 µM) | < 0.1 | 0.4 (≈ 0.39 µM) | 0.4 (≈ 0.39 µM) | > 100 | 100 (≈ 97.4 µM) | 100 (≈ 97.4 µM) | 100 (≈ 97.4 µM) | 1.56 (≈ 1.52 µM) | 100 (≈ 97.4 µM) | 50 (≈ 48.7 µM) | 50 (≈ 48.7 µM) | 50 (≈ 48.7 µM)
10 | CCSC1CC(=O)C(C)CC(CC=O)C(OC2OC(C)C(O)C(N(C)C)C2O)C(C)C(O)CC(=O)OC(CC)C(COC2OC(C)C(O)C(OC)C2OC)C=C1C (stereo not drawn) [Compound N, 11-(Ethylthio)-10,11-dihydrodemycarosyltylosin] | > 100 | > 100 | 50 (≈ 59.9 µM) | > 100 | 0.2 (≈ 0.24 µM) | 0.78 (≈ 0.935 µM) | 0.78 (≈ 0.935 µM) | > 100 | > 100 | > 100 | > 100 | 1.56 (≈ 1.87 µM) | – | – | – | –
11 | CCC1OC(=O)CC(O)C(C)C(OC2OC(C)C(OC3CC(C)(O)C(O)C(C)O3)C(N(C)C)C2O)C(CC=O)CC(C)C(=O)CC(Sc2ccc(N)cc2)C(C)=CC1COC1OC(C)C(O)C(OC)C1OC (stereo not drawn) [Compound U, 11-(p-Aminophenylthio)-10,11-dihydrotylosin] | > 100 | > 100 | > 100 | > 100 | 0.78 (≈ 0.749 µM) | 1.56 (≈ 1.5 µM) | 0.4 (≈ 0.384 µM) | > 100 | > 100 | > 100 | > 100 | 6.25 (≈ 6 µM) | 50 (≈ 48 µM) | 25 (≈ 24 µM) | 25 (≈ 24 µM) | –
